Test results from patent US8853228B2, “Heterocyclic analogs of propargyl-linked inhibitors of dihydrofolate reductase” (University of Connecticut, priority 2011, dated 2014).
Values after ≈ are worked out from the molar mass of the structure shown. Like-named read-outs stand apart in the source and are kept apart here.

Legend:
ChDHFR-TS = ChDHFR-TS (Cryptosporidium hominis, UniProt Q27552); assay: ChDHFR enzyme inhibition assay; format: biochemical; settings: IC50 against ChDHFR
Experimental: (§1) Enzyme and inhibitor were allowed to incubate for 5 min before adding dihydrofolate to initiate the reaction. Enzyme assays were performed at least four times. IC50 values and their standard deviations were calculated in the presence of varying concentrations of inhibitor near the IC50 concentration.
Compounds were evaluated in spectrophotometric enzyme assays using ChDHFR-TS and hDHFR. Inhibition constants (IC50) were measured (see Table 4). […] The compound abbreviations in Table 4 refer to the following compounds: […]

TgDHFR = TgDHFR (Toxoplasma gondii, UniProt Q07422, DEL43-70); assay: TgDHFR enzyme inhibition assay; format: biochemical
Experimental: These residues were removed, leaving a five residue loop region characteristic of several other species of DHFR.
as §1

hDHFR = hDHFR (Homo sapiens (Human), UniProt P00374); assay: hDHFR enzyme inhibition assay; format: biochemical
Experimental: hDHFR: The gene for hDHFR was amplified using PCR from cDNA obtained from ATCC. The gene was inserted in a pET41 vector with a C-terminal histidine tag for affinity chromatography. The resulting construct was verified by sequencing. The hDHFR protein was expressed in E. coli and purified using a nickel affinity column.
as §1
(§2) Enzyme inhibition assays were performed by monitoring the rate of NADPH oxidation by the DHFR enzyme at an absorbance of 340 nm. Assays were performed in the presence of saturating concentrations of NADPH and initiated with dihydrofolate. All assays were completed at 25° C. in a buffer containing 20 mM TES pH 7.0, 50 mM KCl, 10 mM 2-mercaptoethanol, 0.5 mM EDTA and 1 mg/mL BSA. Inhibition was measured at least three times with inhibitor concentrations near the IC50 value and the average IC50 value is reported with a standard deviation.

S. aureus DHFR = S. aureus DHFR (Staphylococcus aureus, UniProt P0A017); format: biochemical; settings: for Selectivity (h/Sa): IC50 (human)/IC50 (pathogen); for IC50: average of at least three measurements
Experimental: as §2

S. pyogenes DHFR = S. pyogenes DHFR (Streptococcus pyogenes, UniProt Q9A091); assay: S. pyogenes DHFR enzyme inhibition assay; format: biochemical; settings: for Selectivity (h/Sp): IC50 (human)/IC50 (pathogen); for IC50: average of at least three measurements
Experimental: as §2

S. aureus 13709 (MRSA) = assay: Antibacterial MIC, broth microdilution with Alamar Blue; format: cell-based, Staphylococcus aureus; settings: for Selectivity MRSA: IC50 (MCF10)/MIC (pathogen); for MIC MRSA: Table 6
Experimental: (§3) For susceptibility testing, 10 μL of glycerol stock was suspended in a 10 mL shake flask culture of chemically defined Isosensitest broth (Oxoid) supplemented with 2% w/v glucose. A sample of the shake flask culture was diluted to 1×10^6 cells/mL in media and added to 96-well test plates (100 μL per well) containing test compounds dispensed in DMSO (2 μL). After an incubation period (30° C.) determined from the strain specific doubling time, a 0.03% w/v aqueous solution of resazurin (10 μL) was added and the plates were allowed to incubate; each well was then scored for dye reduction.

Streptococcus pyogenes = assay: as above; format: cell-based; settings: for Selectivity S. pyogenes: IC50 (MCF10)/MIC (pathogen); for MIC S. pyogenes: Table 6
Experimental: as §3

MCF-10 cells = assay: Mammalian cell toxicity, MCF-10; format: cell-based, human; settings: cytotoxicity
Experimental: (§4) Adherent cell lines were maintained in Eagle's Minimal Essential Media (Sigma-Aldrich, St. Louis, Mo., USA) with 2 mM glutamine and Earle's Balanced Salt Solution (HyClone, Logan, Utah, USA) adjusted to contain 1.5 g/L sodium bicarbonate, 0.1 mM non-essential amino acids, 1 mM sodium pyruvate and 10% fetal calf serum. Fetal calf serum used in these assays was lot matched throughout. […] Toxicity assays were conducted between passages 10-20. Target compound toxicity was measured by incubating the test compound with the cells for 4 h, washing the cells and finally treating the cells with Alamar Blue. After 12-24 h, the fluorescence of the reduced dye was measured. Fluorescence intensity as a function of test compound concentration was fit to the Fermi equation, using non-linear least squares regression analysis, to estimate IC50 values.

HepG2 cells = assay: Mammalian cell toxicity, HepG2; format: cell-based; settings: cytotoxicity
Experimental: as §4

CgDHFR = CgDHFR (Candida glabrata (strain ATCC 2001 / BCRC 20586 / JCM 3761 / NBRC 0622 / NRRL Y-65 / CBS 138) (Yeast) (Nakaseomyces glabratus), UniProt Q6FPH0); assay: biochemical; settings: for IC50: Table 7, read-out: IC50 (CgDHFR)
From the text: CgDHFR: The gene coding CgDHFR was amplified by PCR from C. glabrata genomic DNA obtained from ATCC. The gene was inserted in a pET41 vector that includes a C-terminal histidine tag for nickel affinity chromatography. E. coli cells were transformed and the resulting plasmid was verified by sequencing. The protein was expressed in E. coli BL21(DE3) cells with isopropyl β-D-thiogalactoside induction. Following growth, the cells were lysed with BugBuster (Novagen) and centrifuged; the supernatant was loaded on a Ni-NTA column. The column was washed with 20 mM Tris (pH 8.0)/0.4 M NaCl and the protein was eluted using a gradient of 20 mM Tris (pH 8.0), 0.3 M NaCl, 20% glycerol, 0.1 mM EDTA, 2 mM DTT, 250 mM imidazole. Fractions containing CgDHFR were identified by SDS-PAGE, combined and desalted using a PD-10 column with a buffer containing 20 mM Tris pH 8.0, 20% glycerol, 0.1 mM EDTA and 2 mM DTT. The protein was concentrated to 13 mg/mL.
as §1

C. glabrata = assay: Antifungal assay (MIC, Alamar Blue); format: cell-based, Candida glabrata; settings: for MIC (Cg): C. glabrata, YM media; for antifungal MIC C. glabrata: cell growth inhibition (Table 7 conditions); for MIC C. glabrata: IsoSensitest media supplemented with 2% glucose (thymidine-depleted)
Experimental: Antifungal assays were performed using C. glabrata as a suspension in 50% glycerol at −78° C. For susceptibility testing, a streak of stock culture was made on SDA agar and grown at 30° C. for 48 h. One pure colony of the test organism was recovered from the plate, suspended in appropriate media and grown in a 5 mL shake flask culture. A sample of the shake flask culture was diluted to 1×10^5 cells/mL in media and added to 96-well test plates (100 μL per well) containing test compounds dispensed in DMSO (1 μL). Amphotericin and ketoconazole were used as controls. After an incubation period determined from the strain specific doubling time, Alamar Blue (10 μL) was added, allowed to incubate; each well was scored for dye reduction.
Several representative compounds were also evaluated in thymidine-depleted media. It has been shown that high levels of thymidine interfere with accurate susceptibility testing of antifolates. To compensate for this, antifolates are frequently evaluated in a controlled minimal media with a low thymidine concentration. […] In addition, the compounds were also evaluated for mammalian cell toxicity using MCF-10 and HepG2 cell lines. Cellular selectivity is reported as the IC50 value for the MCF-10 human cell line divided by the MIC value (μg/mL) (Table 8).

[1] = Table 5, average of at least three measurements, read-out: IC50 human
[2] = Table 7, read-out: IC50 (hDHFR)

Chain of S. pyogenes DHFR (Q9A091 1-165): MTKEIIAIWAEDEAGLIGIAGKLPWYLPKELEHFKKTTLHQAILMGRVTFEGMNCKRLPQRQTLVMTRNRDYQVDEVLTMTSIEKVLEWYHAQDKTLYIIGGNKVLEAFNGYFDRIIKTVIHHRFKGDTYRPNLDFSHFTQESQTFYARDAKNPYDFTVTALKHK
Chain of CgDHFR (Q6FPH0 1-217): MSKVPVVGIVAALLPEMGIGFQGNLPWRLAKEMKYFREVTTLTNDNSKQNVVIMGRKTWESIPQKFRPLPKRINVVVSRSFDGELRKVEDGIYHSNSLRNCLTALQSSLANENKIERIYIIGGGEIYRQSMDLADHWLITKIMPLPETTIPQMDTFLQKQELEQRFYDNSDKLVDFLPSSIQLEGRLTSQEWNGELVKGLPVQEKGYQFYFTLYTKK
Chain of hDHFR (P00374 whole entry): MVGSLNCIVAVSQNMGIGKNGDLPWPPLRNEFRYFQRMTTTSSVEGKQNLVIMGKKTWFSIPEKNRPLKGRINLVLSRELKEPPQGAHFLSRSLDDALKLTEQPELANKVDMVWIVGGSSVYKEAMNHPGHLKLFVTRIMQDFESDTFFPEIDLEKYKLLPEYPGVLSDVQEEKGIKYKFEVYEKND
Chain of TgDHFR (Q07422 71-250, added parts left off, stated change not applied): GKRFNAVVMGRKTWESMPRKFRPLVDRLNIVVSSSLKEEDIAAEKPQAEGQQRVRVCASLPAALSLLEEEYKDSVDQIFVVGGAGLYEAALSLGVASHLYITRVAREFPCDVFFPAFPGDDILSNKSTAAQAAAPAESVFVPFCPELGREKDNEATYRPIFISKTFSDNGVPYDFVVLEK
Chain of ChDHFR-TS (Q27552 1-521): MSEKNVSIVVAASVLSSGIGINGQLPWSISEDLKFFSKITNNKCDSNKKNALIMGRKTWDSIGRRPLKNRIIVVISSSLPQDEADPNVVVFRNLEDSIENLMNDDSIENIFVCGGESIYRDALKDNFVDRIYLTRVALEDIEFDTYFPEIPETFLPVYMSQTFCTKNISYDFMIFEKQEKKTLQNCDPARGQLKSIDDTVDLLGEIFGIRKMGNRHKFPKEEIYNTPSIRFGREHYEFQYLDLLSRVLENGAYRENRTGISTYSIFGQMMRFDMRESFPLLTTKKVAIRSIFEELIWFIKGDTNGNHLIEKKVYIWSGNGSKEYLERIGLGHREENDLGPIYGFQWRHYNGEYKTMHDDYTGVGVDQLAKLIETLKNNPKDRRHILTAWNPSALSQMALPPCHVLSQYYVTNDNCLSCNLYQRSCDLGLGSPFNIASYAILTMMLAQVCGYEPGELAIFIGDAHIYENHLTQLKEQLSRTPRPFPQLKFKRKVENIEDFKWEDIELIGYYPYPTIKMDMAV

Row | SMILES | IC50 (hDHFR; [1]) [nM] | Selectivity (h/Sa) (S. aureus DHFR) | IC50 (S. aureus DHFR) [nM] | Selectivity (h/Sp) (S. pyogenes DHFR) | IC50 (S. pyogenes DHFR) [nM] | Selectivity MRSA (S. aureus 13709 (MRSA)) | MIC MRSA (S. aureus 13709 (MRSA)) [µg/mL] | Selectivity S. pyogenes (Streptococcus pyogenes) | MIC S. pyogenes (Streptococcus pyogenes) [µg/mL] | IC50 (MCF-10 cells; Table 6) [nM] | IC50 (HepG2 cells; Table 6) [nM] | further results
1 | COc1cc([C@@H](C)C#Cc2c(C)nc(N)nc2N)cc(OC)c1OC [137(R), 2,4-Diamino-5-((R)-3-(3,4,5-trimethoxyphenyl)but-1-ynyl)-6-methylpyrimidine] |  |  |  |  |  |  |  |  |  |  |  | IC50 (ChDHFR-TS): < 100000 nM; IC50 (TgDHFR): < 100000 nM
2 | CCc1nc(N)nc(N)c1C#CCc1cc(OC)cc(-c2ccncc2)c1 [Compound 150] | 61 ± 5.7 | 5 | 12 ± 2.4 | 2 | 28 ± 4 | 9,089 | 0.045 (≈ 0.125 µM) | 10,225 | 0.04 (≈ 0.111 µM) | 409000 | 465000 | 
3 | CCc1nc(N)nc(N)c1C#CCc1cc(OC)cc(-c2ccccc2)c1 [Compound 144] | 140 ± 1 | 2.4 | 59 ± 2.3 | 3 | 52 ± 1.7 | 2500 | 0.08 (≈ 0.223 µM) | 603 | 0.33 (≈ 0.921 µM) | 199000 |  | 
4 | COc1cc(-c2ccncc2)cc(C(C)C#Cc2c(C)nc(N)nc2N)c1 (stereo not shown) [Compound 147] | 1500 ± 8 |  | 26 ± 2 |  | 160 ± 9 |  | 0.09 (≈ 0.25 µM) |  | 0.012 (≈ 0.0334 µM) | 220000 | 233000 | IC50 (hDHFR; [2]): 1500 ± 83 nM; IC50 (CgDHFR): 97 ± 9 nM; MIC (Cg) (C. glabrata): 1.4 µg/mL (≈ 3.9 µM); antifungal MIC C. glabrata (C. glabrata): 1.4 to 1.5 µg/mL
5 | CCc1nc(N)nc(N)c1C#CCc1cccc(-c2cncnc2)c1 [Compound 155] | 160 ± 13 | 5 | 35 ± 1.1 | 7 | 23 ± 1.2 | 3,333 | 0.15 (≈ 0.454 µM) | 26,316 | 0.019 (≈ 0.0575 µM) | > 500000 |  | 
6 | COc1cc(C(C)C#Cc2c(C)nc(N)nc2N)cc(N2C[C@@H](C)O[C@@H](C)C2)c1 (mixture of isomers) [Compound 156] |  |  |  |  |  |  |  |  |  |  |  | IC50 (hDHFR; [2]): 330 ± 6 nM; Selectivity (CgDHFR; Table 7, hDHFR vs CgDHFR): 4.9 ± 0.4; IC50 (CgDHFR): 68 ± 5 nM; MIC (Cg) (C. glabrata): 6.3 µg/mL (≈ 15.9 µM); Selectivity Index (C. glabrata; IC50 (MCF-10)/MIC (C. glabrata)): 108; MIC C. glabrata (C. glabrata): 2.9 µg/mL (≈ 7.33 µM); IC50 (MCF-10 cells; Table 8): 314000 nM; IC50 (HepG2 cells; Table 8): 193000 nM
7 | CCc1nc(N)nc(N)c1C#CCc1cccc(-c2cccnc2)c1 [Compound 154] | 290 ± 15 | 9 | 33 ± 0.5 | 6 | 47 ± 4.6 | >20,000 | 0.041 (≈ 0.124 µM) | >20,000 | 0.08 (≈ 0.243 µM) | > 500000 | > 500000 | 
8 | CCc1nc(N)nc(N)c1C#CCc1cccc(-c2ccccc2)c1 [Compound 143] | 290 ± 36 | 10 | 28 ± 1.7 | 11 | 26 ± 1.7 | 45 | 0.71 (≈ 2.16 µM) | 842 | 0.04 (≈ 0.122 µM) | 32000 |  | 
9 | CCc1nc(N)nc(N)c1C#CCc1cc(-c2ccccc2)ccc1OC [Compound 142] | 300 ± 10 | 125 | 2.4 ± 0.2 | 51 | 5.9 ± 0.2 | 372 | 0.18 (≈ 0.502 µM) | 11,167 | 0.006 (≈ 0.0167 µM) | 67000 |  | improvement in potency against S. aureus DHFR (S. aureus DHFR; relative to compound 140): 18 fold
10 | COc1ccc(-c2ccccc2)cc1C(C)C#Cc1c(C)nc(N)nc1N (stereo not shown) [Compound 145] | 97 ± 10 | 1.3 | 75 ± 4 | 4 | 23 ± 1.5 | 53 | 0.716 (≈ 2 µM) | 950 | 0.04 (≈ 0.112 µM) | 38000 | 94000 | 
11 | CCc1nc(N)nc(N)c1C#CC(C)c1cc(OC)cc(-c2ccncc2)c1 (stereo not shown) [Compound 148] | 1300 ± 11 |  | 19 ± 1 |  | 180 ± 19 |  | 0.09 (≈ 0.241 µM) |  | 0.012 (≈ 0.0321 µM) | 85000 | 171000 | IC50 (hDHFR; [2]): 1300 ± 11 nM; IC50 (CgDHFR): 89 ± 8 nM; MIC (Cg) (C. glabrata): 1.5 µg/mL (≈ 4.02 µM); MIC C. glabrata (C. glabrata): 0.36 µg/mL (≈ 0.964 µM); antifungal MIC C. glabrata (C. glabrata): 1.4 to 1.5 µg/mL; IC50 (MCF-10 cells; Table 8): 85000 nM; IC50 (HepG2 cells; Table 8): 171000 nM
12 | CCc1nc(N)nc(N)c1C#CCc1cccc(-c2ccncc2)c1 [Compound 151] | 520 ± 23 | 26 | 20 ± 0.5 | 17 | 30 ± 1.7 | 11,585 | 0.041 (≈ 0.124 µM) | 11,875 | 0.04 (≈ 0.121 µM) | 475000 | > 500000 | 
13 | CCc1nc(N)nc(N)c1C#CC(C)c1cc(-c2ccccc2)ccc1OC (stereo not shown) [Compound 146] | 100 ± 10 | 1.5 | 67 ± 5.5 | 4 | 26 ± 2.5 | 72 | 0.744 (≈ 2 µM) | 675 | 0.08 (≈ 0.215 µM) | 54000 | 77000 | 
14 | CCc1nc(N)nc(N)c1C#CCc1cc(-c2ccncc2)ccc1OC [Compound 149] | 330 ± 12 | 16 | 21 ± 1 | 17 | 19 ± 1.3 | >20,000 | 0.01 (≈ 0.0278 µM) | 3,867 | 0.09 (≈ 0.25 µM) | 217000 | 199000 | 
